According to article PMC4747383, “Design of a peptidic inhibitor that targets the dimer interface of a prototypic galectin” (Oncotarget, 2015):

Columns and labels:
recombinant hGal-2 = assay: Disruption of hGal-2 dimers, native gel electrophoresis/Western blot; type: biochemical, human; conditions: recombinant hGal-2, 20 mM potassium phosphate pH 7.1, films overexposed, three independent experiments
Source text: (§1) To measure the ability of the peptides to disrupt the formation of hGal-7 dimers, we used mild denaturing native gel electrophoresis, a commonly used approach to visualize monomer-dimer equilibrium (Fig. 1A and Supplementary Fig. S1). […] This specificity at disrupting hGal-7 dimer formation is provided by distinct three-dimensional arrangements between otherwise very similar galectin homologues. Indeed, while all monomeric galectins reveal identical topologies, dimer formation in hGal-7 proceeds through a “back-to-back” topology of the monomers while other galectins, including hGal-1 and hGal-2, adopt a “side-by-side” structural arrangement (Fig. 1B). This structural organization provides additional means to specifically target and disrupt galectin function.
(§2) Incubation of the recombinant B. hGal-1 and C. hGal-2 with hGal-7(129–135) was performed in the same potassium phosphate buffer. The effect of hGal-7(129–135) on the monomeric and dimeric forms of hGal-7/hGal-1/hGal-2 was assessed by Western blotting in native conditions with respective antibodies. The hGal-1/hGal-2 films were overexposed. PACAP28–38 was the control peptide used in order to ensure the specificity of hGal-7(129–135). […]
(§3) Human Gal-7 cDNA was cloned into pET-22b(+) using NdeI and HindIII restriction enzymes. […] Purified fractions were analyzed by SDS-PAGE. […]

recombinant hGal-1 = assay: Disruption of hGal-1 dimers, native gel electrophoresis/Western blot; type: biochemical, human; conditions: recombinant hGal-1, 20 mM potassium phosphate pH 7.1, films overexposed, three independent experiments
Source text: as §1, §2, §3

H-LDSVRIP-NH2 [hGal-7(129–135), peptide corresponding to hGal-7 segment between residues 129–135]
disruption of hGal-2 homodimers (recombinant hGal-2): No such effect was observed | disruption of hGal-1 homodimers (recombinant hGal-1): No such effect was observed
